Results taken from patent publication US20120035218A1, “PEST CONTROL COMPOSITION” (SUMITOMO CHEMICAL COMPANY, LIMITED, priority 2010, published 2012).

Tested on: cat fleas
Assay: Cat flea emergence inhibition from eggs on treated flea-rearing medium
Assay type: in vivo
Details: 20 flea eggs, after approximately three weeks, corrected against acetone control
Procedure: Six gram quantities of medium for rearing fleas (mixed to make sand/powdered feed/dry yeast/dry bovine blood=80/16/3/1 wt %) were placed in vials. Acetone solutions were prepared so that the hydrazide compounds and pyriproxyfen would have the concentrations (wt % versus the medium) shown in Table 2 in the treated medium for rearing fleas. The medium was treated by 1.0 mL of the acetone solution, stirred until homogeneous, and dried. Filter paper (TOYO No. 2; 3.8 cm in diameter) was placed on aluminum dishes 3.8 cm in diameter, and 20 flea eggs were placed on the filter paper using a suitably moistened brush. A quantity of 1.0 g of the dried, treated medium was placed evenly on top of the filter paper on which the eggs rested, and the aluminum dishes were placed in resin petri dishes and stored at a temperature of 26° C. and humidity of 85-95%. Medium that had been treated only by acetone was also processed by the same method as a control group. After approximately three weeks, the emergence of the cat fleas was examined, and the emergence inhibition rate was calculated by the following formula.
Corrected emergency inhibition rate=(C−T)÷C×100
C: Emergence rate of untreated control group
T: Emergence rate of treated group

[1] = hydrazide compound 0.4 × 10^−4 % in combination with pyriproxyfen 10^−8 % (wt % versus the medium)
[2] = hydrazide compound alone, 0.4 × 10^−4 % (wt % versus the medium)

SMILES	Emergence inhibition rate (%) [1] [%]	Emergence inhibition rate (%) [2] [%]	Emergence inhibition rate (%) (pyriproxyfen alone, 10^−8 % (wt % versus the medium))
CN(NC(=O)CCC(F)(F)F)c1cc(C2=NOC(c3cc(Cl)cc(Cl)c3)(C(F)(F)F)C2)ccc1Cl (centres unmarked) [Hydrazide compound (31), N′-methyl-N′-{2-chloro-5-[5-(3,5-dichlorophenyl)-5-trifluoromethyl-4,5-dihydroisoxazol-3-yl]phenyl}-4,4,4-trifluorobutyrohydrazide]	86	34	–
CC(COc1ccc(Oc2ccccc2)cc1)Oc1ccccn1 (centres unmarked) [Pyriproxyfen, 4-phenoxyphenyl=2-(pyridyloxy)propyl=ether, reference compound]	–	–	4.0
O=C(CCC(F)(F)F)NNc1cc(C2=NOC(c3cc(Cl)cc(Cl)c3)(C(F)(F)F)C2)ccc1Cl (centres unmarked) [Hydrazide compound (17), N′-{5-[5-(3,5-dichlorophenyl)-5-trifluoromethyl-4,5-dihydroisoxazol-3-yl]-2-chlorophenyl}-4,4,4-trifluorobutyrohydrazide]	63	6.3	–
